Values quoted from earlier work, collected in US10753947B2, “Methods for screening voltage-gated proteins” (D.E. Shaw Research, LLC, priority 2012, dated 2020).
Read-outs that look alike come from different tables or passages of the source.

Key:
Kv1.2 = Kv1.2 (Homo sapiens, UniProt P16389); details: Table 4; read-out: IC50 Kv1.2; cited from earlier work
Kv1.5 = Kv1.5 (Homo sapiens, UniProt P22460); details: Table 4; cited from earlier work
KCa3.1 = KCa3.1 (Homo sapiens, UniProt O15554); details: Table 4; cited from earlier work
KCa3.1, sequence (O15554 whole entry): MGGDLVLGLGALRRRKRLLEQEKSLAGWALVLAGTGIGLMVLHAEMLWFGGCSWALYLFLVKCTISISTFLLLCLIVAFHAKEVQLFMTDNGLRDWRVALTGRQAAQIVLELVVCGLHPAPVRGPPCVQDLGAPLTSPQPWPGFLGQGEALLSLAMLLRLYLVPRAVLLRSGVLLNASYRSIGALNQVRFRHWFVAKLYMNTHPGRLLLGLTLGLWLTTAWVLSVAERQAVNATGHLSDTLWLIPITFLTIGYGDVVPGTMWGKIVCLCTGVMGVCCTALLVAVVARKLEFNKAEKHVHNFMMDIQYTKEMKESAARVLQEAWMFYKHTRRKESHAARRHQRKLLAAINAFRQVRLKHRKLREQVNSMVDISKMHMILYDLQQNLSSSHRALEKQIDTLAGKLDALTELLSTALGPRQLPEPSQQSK

Nav = details: Table 4; read-out: IC50 Others: Nav; cited from earlier work
Kv1.3 = Kv1.3 (Homo sapiens, UniProt P22001); details: cited from earlier work
Kv1.3, sequence (P22001 whole entry): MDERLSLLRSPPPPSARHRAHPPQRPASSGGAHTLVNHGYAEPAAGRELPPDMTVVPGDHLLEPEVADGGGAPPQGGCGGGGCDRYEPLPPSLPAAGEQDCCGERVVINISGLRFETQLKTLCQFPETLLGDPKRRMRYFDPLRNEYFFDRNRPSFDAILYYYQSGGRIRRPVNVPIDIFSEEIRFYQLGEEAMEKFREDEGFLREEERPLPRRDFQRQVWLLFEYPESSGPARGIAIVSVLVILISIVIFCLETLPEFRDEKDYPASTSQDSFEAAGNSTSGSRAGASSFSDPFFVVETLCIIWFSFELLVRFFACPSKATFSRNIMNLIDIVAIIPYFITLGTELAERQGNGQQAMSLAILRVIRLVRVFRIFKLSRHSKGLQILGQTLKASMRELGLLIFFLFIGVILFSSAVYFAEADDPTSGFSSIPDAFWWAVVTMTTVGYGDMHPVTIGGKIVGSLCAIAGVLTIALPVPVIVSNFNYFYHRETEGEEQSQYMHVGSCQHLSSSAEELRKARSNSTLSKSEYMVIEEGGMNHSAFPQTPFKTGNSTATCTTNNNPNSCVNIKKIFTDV

Kv1.1 = Kv1.1 (Homo sapiens, UniProt Q09470); details: Table 4; read-out: IC50 Kv1.1; cited from earlier work
Kv1.1, sequence (Q09470 whole entry): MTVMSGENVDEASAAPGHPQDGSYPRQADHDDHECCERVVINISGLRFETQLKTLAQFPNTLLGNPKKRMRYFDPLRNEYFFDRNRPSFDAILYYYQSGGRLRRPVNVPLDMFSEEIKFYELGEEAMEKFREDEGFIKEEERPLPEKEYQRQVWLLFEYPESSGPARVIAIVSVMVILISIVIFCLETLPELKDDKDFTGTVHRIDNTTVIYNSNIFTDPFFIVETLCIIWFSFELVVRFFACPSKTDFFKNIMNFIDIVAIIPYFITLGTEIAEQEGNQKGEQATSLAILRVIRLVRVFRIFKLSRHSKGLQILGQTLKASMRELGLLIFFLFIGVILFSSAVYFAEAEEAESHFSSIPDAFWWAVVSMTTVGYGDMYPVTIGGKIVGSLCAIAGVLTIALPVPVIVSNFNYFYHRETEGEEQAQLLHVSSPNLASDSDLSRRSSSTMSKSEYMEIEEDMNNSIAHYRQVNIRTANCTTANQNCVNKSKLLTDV

Kv3.2 = target: T1, Kv3.2 (Homo sapiens, UniProt Q96PR1); details: Table 4; read-out: IC50 Others: Kv3.2; cited from earlier work
T1 sequence (Q96PR1 1-638): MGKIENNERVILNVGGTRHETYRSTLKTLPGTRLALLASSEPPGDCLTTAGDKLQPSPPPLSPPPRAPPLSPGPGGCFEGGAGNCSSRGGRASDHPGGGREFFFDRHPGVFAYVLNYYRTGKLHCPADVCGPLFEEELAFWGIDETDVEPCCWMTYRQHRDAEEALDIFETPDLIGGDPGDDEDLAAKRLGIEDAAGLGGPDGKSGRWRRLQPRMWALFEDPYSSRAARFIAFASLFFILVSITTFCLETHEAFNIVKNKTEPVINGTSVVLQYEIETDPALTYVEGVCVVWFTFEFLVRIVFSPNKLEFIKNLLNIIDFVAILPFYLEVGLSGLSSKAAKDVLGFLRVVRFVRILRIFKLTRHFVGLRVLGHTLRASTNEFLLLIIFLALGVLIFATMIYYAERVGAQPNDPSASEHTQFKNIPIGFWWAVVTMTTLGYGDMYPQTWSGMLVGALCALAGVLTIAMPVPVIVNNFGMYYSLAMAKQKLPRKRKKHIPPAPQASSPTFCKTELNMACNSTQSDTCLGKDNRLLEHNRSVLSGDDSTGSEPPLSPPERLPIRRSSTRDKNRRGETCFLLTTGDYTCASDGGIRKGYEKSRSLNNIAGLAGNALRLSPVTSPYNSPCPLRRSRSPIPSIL

Kv1.4 = Kv1.4 (Homo sapiens, UniProt P22459); details: Table 4; read-out: IC50 Others: Kv1.4; cited from earlier work
Kv1.4, sequence (P22459 whole entry): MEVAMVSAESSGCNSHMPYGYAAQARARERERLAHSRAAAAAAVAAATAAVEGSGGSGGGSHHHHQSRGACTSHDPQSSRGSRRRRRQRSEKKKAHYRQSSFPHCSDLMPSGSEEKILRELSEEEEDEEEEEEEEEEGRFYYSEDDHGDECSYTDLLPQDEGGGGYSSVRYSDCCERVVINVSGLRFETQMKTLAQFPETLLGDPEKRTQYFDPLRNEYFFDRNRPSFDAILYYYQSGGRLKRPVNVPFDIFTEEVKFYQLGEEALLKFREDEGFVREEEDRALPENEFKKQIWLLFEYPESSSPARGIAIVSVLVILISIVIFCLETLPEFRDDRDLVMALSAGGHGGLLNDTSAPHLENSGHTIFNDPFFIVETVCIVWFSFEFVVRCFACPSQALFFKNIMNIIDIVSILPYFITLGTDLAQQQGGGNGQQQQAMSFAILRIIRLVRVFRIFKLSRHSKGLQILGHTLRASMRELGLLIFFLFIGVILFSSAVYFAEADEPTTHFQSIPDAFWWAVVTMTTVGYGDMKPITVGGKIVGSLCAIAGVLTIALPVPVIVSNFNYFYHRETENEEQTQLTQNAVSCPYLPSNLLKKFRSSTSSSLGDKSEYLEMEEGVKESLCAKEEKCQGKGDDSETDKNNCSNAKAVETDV

[1] = Table 2, modulating Kv1.3 ion conductance, read-out: IC50

Kv1.5, sequence (P22460 whole entry): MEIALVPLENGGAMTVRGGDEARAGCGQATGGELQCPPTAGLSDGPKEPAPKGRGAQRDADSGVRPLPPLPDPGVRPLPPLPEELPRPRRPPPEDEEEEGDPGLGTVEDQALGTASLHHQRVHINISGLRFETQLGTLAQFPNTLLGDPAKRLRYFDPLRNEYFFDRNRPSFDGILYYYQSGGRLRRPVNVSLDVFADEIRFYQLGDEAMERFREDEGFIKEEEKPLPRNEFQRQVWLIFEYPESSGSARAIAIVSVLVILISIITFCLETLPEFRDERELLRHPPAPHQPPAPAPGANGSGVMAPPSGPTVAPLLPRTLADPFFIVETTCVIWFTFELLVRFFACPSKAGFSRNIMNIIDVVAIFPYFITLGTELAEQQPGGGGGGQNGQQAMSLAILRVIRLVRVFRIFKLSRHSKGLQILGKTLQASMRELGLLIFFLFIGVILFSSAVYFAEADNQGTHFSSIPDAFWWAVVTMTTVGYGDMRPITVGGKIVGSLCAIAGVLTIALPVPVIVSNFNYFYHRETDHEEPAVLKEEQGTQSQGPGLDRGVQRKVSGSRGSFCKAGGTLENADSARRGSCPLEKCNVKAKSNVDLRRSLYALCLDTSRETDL
Kv1.2, sequence (P16389 whole entry): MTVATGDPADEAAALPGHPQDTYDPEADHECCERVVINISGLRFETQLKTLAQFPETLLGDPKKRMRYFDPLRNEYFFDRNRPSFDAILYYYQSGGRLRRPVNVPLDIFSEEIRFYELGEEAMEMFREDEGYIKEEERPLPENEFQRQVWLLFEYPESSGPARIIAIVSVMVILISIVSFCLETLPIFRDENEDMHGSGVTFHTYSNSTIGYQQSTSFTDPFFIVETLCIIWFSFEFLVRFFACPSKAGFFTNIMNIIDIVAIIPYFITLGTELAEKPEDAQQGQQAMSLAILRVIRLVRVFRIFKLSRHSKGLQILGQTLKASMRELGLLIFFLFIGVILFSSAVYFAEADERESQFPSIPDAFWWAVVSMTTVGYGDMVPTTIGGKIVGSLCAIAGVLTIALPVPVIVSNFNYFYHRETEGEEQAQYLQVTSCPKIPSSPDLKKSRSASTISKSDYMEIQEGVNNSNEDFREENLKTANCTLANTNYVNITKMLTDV

Structure (SMILES)	IC50 (Kv1.2) [nM]	IC50 (Kv1.5) [nM]	IC50 (KCa3.1) [nM]	IC50 (Nav) [nM]	IC50 (Kv1.3; [1]) [nM]	IC50 (Kv1.3; Table 4, read-out: IC50 Kv1.3) [nM]	IC50 (Kv1.1) [nM]	IC50 (Kv3.2) [nM]	IC50 (Kv1.4) [nM]
CCCCC/N=c1\ccn(Cc2ccccc2)c2ccccc12 [CP-339818]	14000	19000	> 500000	10	150	230	62000	–	–
COc1ccc(CCCN2CCC(COC(c3ccccc3)c3ccccc3)CC2)cc1 [UK-78282]	2900	70	> 30000	–	200	–	22000	127000	300
